Several values for one entry are separate records, joined by “and”; a condition that tells them apart may be missing. Equal values may be shown once. Marks after values point to notes of the source that are not given here.
How the values were obtained:
[1] = substituent of phenyl group; estimated from the Table in Hogberg et al.; cited from earlier work
[2] = system: 9L brain gliosarcoma cells; experiment: Tumor cell growth in vitro (sulforhodamine B), 9L; format: cell-based; conditions: 9L; rounded off to one digit; read-out: Inhibition of tumor cell growth in vitro, IC50
Procedure: (§1) Growth of cell lines. Comparisons of different inhibitors with regard to suppression of human cancer cell growth were made by the University of Michigan Cancer Center in vitro Drug Evaluation Core Laboratory. MCF-7 breast carcinoma cells, HT-29 colon adenocarcinoma cells, H-460 lung large cell carcinoma cells, and 9L brain gliosarcoma cells were grown in RPMI 1640 medium with 5% fetal bovine serum, 2 mM glutamine, 50 units/ml of penicillin, […] of streptomycin, and 0.1 mg/ml of neomycin. UMSCC-10A head and neck squamous carcinoma cells were grown in minimal essential medium with Earle salts and the same supplements. Medium components were from Sigma Chemical Co. Cells were plated in 96-well microtiter plates (1000 cells/well for H-460 and 9L cells, and 2000 cells/well for the other lines), and the test compounds were added 1 day later. The stock inhibitor solutions, 2 mM in 2 mM BSA, were diluted with different amounts of additional 2 mM BSA, then each solution was diluted 500-fold with growth medium to obtain the final concentrations indicated in the Figures and Tables.
(§2) Five days after plating the H-460 and 9L cells, or 6 days for the other lines, cell growth was evaluated by staining the adhering cells with sulforhodamine B and measuring the absorbance at 520 nm (Skehan, P. et al., “New Colorimetric Cytotoxicity Assay for Anticancer-Drug Screening,” J. Natl. Cancer Inst., 82:1107-1112 (1990)). The absorbance of the treated cultures is reported as percent of that of control cultures, to provide an estimate of the fraction of the cells that survived, or of inhibition of growth rate.

[3] = system: MCF-7 breast carcinoma cells; experiment: Tumor cell growth in vitro (sulforhodamine B), MCF-7; format: cell-based, human; conditions: rounded off to one digit, read-out: Inhibition of tumor cell growth in vitro, IC50
Procedure: as §1, §2

[4] = system: GlcCer synthase of MDCK cell homogenates; experiment: Inhibition of ceramide glucosyltransferase (GlcCer synthase) of MDCK cell homogenates; format: biochemical, canine; conditions: for Inhibition at 5 μM: 5 μM inhibitor; for Inhibition at 5 μM / % Inhibition at 80 μM: triplicate ± SD, samples partly isomer mixtures; for % Inhibition at 80 μM: 80 μM inhibitor
Procedure: Assay of sphingolipid enzymes. The inhibitors were evaluated for their effectiveness against the GlcCer synthase of MDCK cell homogenates by incubation in a thermostatted ultrasonic bath (Radin N. S. et al., “Ultrasonic Baths as Substitutes for Shaking Incubator Baths,” Enzyme, 45:67-70 (1991)) with octanoyl sphingosine and uridinediphospho[^3H]glucose (Shukla, G. S. et al., “Glucosylceramide Synthase of Mouse Kidney: Further Characterization and Improved Assay Method,” Arch. Biochem. Biophys., 283:372-378 (1990)). The lipoidal substrate (85 μg) was added in liposomes made from 0.57 mg dioleoylphosphatidylcholine and 0.1 mg of Na sulfatide. Confluent cells were washed, then homogenized with a micro-tip sonicator at 0° C. for 3×30 sec; ˜0.2 mg of protein was used in each assay tube. In the case of the aromatic inhibitors, the test compound was simply evaporated to dryness from solution in the incubation tube. […] The aliphatic inhibitors, which appeared to be less soluble in water, were added as part of the substrate liposomes.

[5] = system: HT-29 colon adenocarcinoma cells; experiment: Tumor cell growth in vitro (sulforhodamine B), HT-29; format: cell-based, human; conditions: rounded off to one digit, read-out: Inhibition of tumor cell growth in vitro, IC50
Procedure: as §1, §2

[6] = system: H-460 lung large cell carcinoma cells; experiment: Tumor cell growth in vitro (sulforhodamine B), H-460; format: cell-based, human; conditions: rounded off to one digit, read-out: Inhibition of tumor cell growth in vitro, IC50
Procedure: as §1, §2

[7] = system: three of the tumor cell lines; experiment: Growth tests of chemotherapeutic agents in the Drug Evaluation Core Laboratory; format: cell-based; conditions: range over three of the tumor cell lines
Procedure: as §1, §2

neutral ceramidase = experiment: Neutral ceramidase of MDCK cell homogenate; format: biochemical, canine
Procedure: (§3) Acid and neutral ceramidases were assayed under conditions like those above, but the medium contained 110 μM [1-^14C]decanoyl sphingosine (10^5 cpm) in 340 μM dioleoylphosphatidylcholine liposomes and 0.34 mg of MDCK cellular protein homogenate. […] After 60 min in the ultrasonic bath, 3 ml of C-M 2:1, carrier decanoic acid, and 0.6 ml of 0.9% saline were added and the lipids in the lower layer were separated by TLC with C-HOAc 9:1. The liberated decanoic acid was scraped off the glass plate and counted.

MDCK cells [8] = experiment: MDCK cell growth (cellular protein per dish); format: cell-based, canine
Procedure: For the experiments with labeled thymidine, each 8.5 cm dish contained 500,000 Madin-Darby canine kidney (MDCK) cells in 8 ml of Dulbecco modified essential supplemented medium. […] The control cells were also incubated in the presence of BSA. The cells were washed with phosphate/saline and trichloroacetic acid, then scraped off the dishes, dissolved in alkali, and analyzed for protein and DNA incorporated tritium. [Methyl-^3H]thymidine (10 μCi) was added 4 h prior to harvesting.

Acid SMase = experiment: Acid sphingomyelinase of MDCK cells; format: biochemical, canine
Procedure: Acid and neutral SMase assays were based on the procedures of Gatt et al. (Gatt, S. et al., “Assay of Enzymes of Lipid Metabolism With Colored and Fluorescent Derivatives of Natural Lipids,” Meth. Enzymol., 72:351-375 (1981)), using liposomes containing NBD-SM dispersed like the labeled ceramide (10 μM substrate and 30 μM lecithin). The assay medium for the neutral enzyme also contained 50 mM Tris-Cl^− (pH 7.4), 25 mM KCl, 5 mM MgCl2 and 0.29 mg of MDCK cell protein in a total volume of 0.25 ml. Incubation was at 37° C. for 30 min in the ultrasonic bath, then the fluorescent product, NBD-ceramide, was isolated by partitioning the assay mixture with 0.45 ml 2-propanol, 1.5 ml heptane, and 0.2 ml water. After centrifugation, a trace of contaminating NBD-SM was removed from 0.9 ml of the upper layer by washing with 0.35 ml water. The upper layer was analyzed with a fluorometer (460 nm excitation, 515 nm emission).
[…] The resultant ceramide was determined as above.

[9] = system: Neutral sphingomyelinase (SMase); experiment: Neutral sphingomyelinase of MDCK cells; format: biochemical, canine
Procedure: Acid and neutral SMase assays were based on the procedures of Gatt et al. (Gatt, S. et al., “Assay of Enzymes of Lipid Metabolism With Colored and Fluorescent Derivatives of Natural Lipids,” Meth. Enzymol., 72:351-375 (1981)), using liposomes containing NBD-SM dispersed like the labeled ceramide (10 μM substrate and 30 μM lecithin). […] Incubation was at 37° C. for 30 min in the ultrasonic bath, then the fluorescent product, NBD-ceramide, was isolated by partitioning the assay mixture with 0.45 ml 2-propanol, 1.5 ml heptane, and 0.2 ml water. After centrifugation, a trace of contaminating NBD-SM was removed from 0.9 ml of the upper layer by washing with 0.35 ml water. The upper layer was analyzed with a fluorometer (460 nm excitation, 515 nm emission).

acid ceramidase = experiment: Acid ceramidase of MDCK cell homogenate; format: biochemical, canine
Procedure: as §3

Ceramide synthase = Ceramide synthase of MDCK homogenate; format: biochemical, canine
Procedure: Ceramide synthase was assayed with 1 μM [3-^3H]sphingosine (70,000 cpm, repurified by column chromatography), 0.2 mM stearoyl-CoA, 0.5 mM dithiothreitol, and ˜300 μg of MDCK homogenate protein in 25 mM phosphate-K^+ buffer, pH 7.4, in a total volume of 0.2 ml. The incubation (for 30 min) and TLC were carried out as above and the ceramide band was counted.

MDCK cells [10] = experiment: Lipid changes in MDCK cells (GlcCer, ceramide, diacylglycerol); format: cell-based, canine

SMILES: CCCCCCCCCCCCCCCC(=O)N[C@H](CN1CCCC1)[C@H](O)c1ccc(Cl)cc1 [p-chloro-P4]
- σ + π [1]: 0.94

SMILES: CCCCCCCCCCCCCCCC(=O)N[C@H](CN1CCCC1)[C@H](O)c1cccc(OC)c1 [m-methoxy-P4]
- σ + π [1]: 0.10

SMILES: CCCCCCCCCCCCCCCC(=O)NC(CN1CCCCC1)C(O)c1ccccc1 (mixture of isomers) [BML-115]
- IC50 [2]: 2000 nM
- IC50 [3]: 2000 nM
- Inhibition at 5 μM [4]: 12.4%
- % Inhibition at 80 μM ([4]; 80 µM): 82 ± 0.3^b % and 84 ± 0.8^a %
- improvement of activity relative to PPMP ([4]; calculated from inhibitions at 5 μM in Expt. f and relative purities): ~1.4 fold
- IC50 [5]: 2000 nM
- IC50 [6]: 2000 nM

SMILES: CCCCCCCCCCCCCCCC(=O)NC(CN1CCCCC1)C(O)c1ccc(F)cc1 (mixture of isomers) [BML-118]
- IC50 [2]: 2000 nM
- IC50 [3]: 2000 nM
- Inhibition at 5 μM [4]: 8.3 ± 1.4^f %
- % Inhibition at 80 μM [4]: 62 ± 0.4^b %
- IC50 [6]: 2000 nM

SMILES: CCCCCCCCCCCCCCCC(=O)N[C@H](CN1CCCC1)[C@H](O)c1ccc(OC)cc1 [D-threo-p-methoxy-P4]
- σ + π [1]: −0.29

SMILES: CN(Cc1cnc2nc(N)nc(N)c2n1)c1ccc(C(=O)N[C@@H](CCC(=O)O)C(=O)O)cc1 [methotrexate]
- IC50 [7]: 30 to 200 nM

SMILES: CCCCCCCCCCCCCCCC(=O)N[C@H](CN1CCCC1)[C@H](O)c1ccc(C)cc1 [p-methyl-P4]
- σ + π [1]: 0.39

SMILES: COc1cc([C@@H]2c3cc4c(cc3[C@@H](O[C@@H]3O[C@@H]5CO[C@@H](C)O[C@H]5[C@H](O)[C@H]3O)[C@H]3COC(=O)[C@H]23)OCO4)cc(OC)c1O [etoposide]
- IC50 [7]: 100 to 1000 nM

SMILES: O=c1[nH]cc(F)c(=O)[nH]1 [fluorouracil]
- IC50 [7]: 70 to 200 nM

SMILES: CCCCCCCCCCCCCC=CC(O)C(CN1CCCC1)NC(=O)CCCCCCCCCCCCCCC [IV-231B, D-threo-1-pyrrolidino-1-deoxyceramide]
- Ceramidase pH 7.4, enzyme activity (% of control) (neutral ceramidase; 5 μM): 116 ± 20 % of control
- Ceramidase pH 7.4, enzyme activity (% of control) (neutral ceramidase; 50 μM): 112 ± 3 % of control
- effect on MDCK cell growth (MDCK cells [8]; 20 μM for 1 day or 1 μM for 3 days): no inhibitory effect
- effect on MDCK cell growth (MDCK cells [8]; 5 days in 5 μM inhibitor): no slowing of growth
- protein per dish (MDCK cells [8]; 5 days in 5 μM inhibitor, BSA complex): 3.30 ± 0.04 mg
- Sphingomyelinase pH 4.5, enzyme activity (% of control) (Acid SMase; 5 μM): 101 ± 7 % of control
- Sphingomyelinase pH 4.5, enzyme activity (% of control) (Acid SMase; 50 μM): 112 ± 11 % of control
- Sphingomyelinase pH 7.1, enzyme activity (% of control) ([9]; 5 μM): 131 ± 3^b % of control
- Sphingomyelinase pH 7.1, enzyme activity (% of control) ([9]; 50 μM): 120 ± 3^b % of control
- degree of inhibition of GlcCer synthase ([4]; 3 μM, inhibitor incorporated into the substrate liposomes): 77±0.9%
- Inhibition at 5 μM [4]: 87 ± 0.4^g %
- Ceramidase pH 4.5, enzyme activity (% of control) (acid ceramidase; 5 μM): 106 ± 3 % of control
- Ceramidase pH 4.5, enzyme activity (% of control) (acid ceramidase; 50 μM): 113 ± 8 % of control
- Ceramide Synthase, enzyme activity (% of control) (Ceramide synthase; 5 μM): 90 ± 8 % of control
- Ceramide Synthase, enzyme activity (% of control) (Ceramide synthase; 50 μM): 71 ± 18^a % of control
- GlcCer in cells (TLC) (MDCK cells [10]; 1 μM for 3 days): virtually no GlcCer was visible
- GlcCer in cells (TLC) (MDCK cells [10]; 0.02 to 1 μM for 3 days): great depletion of GlcCer
- ceramide accumulation (TLC) (MDCK cells [10]; 0.02 to 1 μM for 3 days): no ceramide accumulation
- all the GSLs in cells (TLC) (MDCK cells [10]; 5 days in 5 μM inhibitor): virtually undetectable
- ceramide concentration (MDCK cells [10]; depleted cells, 5 days in 5 μM inhibitor): 13.9±0.2 μg/mg protein

SMILES: CCCCCCCCCCCCCCCC(=O)NC(CN1CCC1)C(O)c1ccccc1 (mixture of isomers) [BML-123]
- IC50 [2]: 2000 nM
- IC50 [3]: 2000 nM
- Inhibition at 5 μM [4]: 15 ± 0.8^f %
- % Inhibition at 80 μM [4]: 86 ± 0.1^d %
- IC50 [5]: 2000 nM
